These results are taken from a melting point compilation (Tetko et al.; mined from patent text by program, amines drawn as free bases though some values may be those of a salt).

By melting point is commonly meant the temperature of the solid-liquid transition. `CC1=C(Cl)C(c2ccccc2)C([N+](=O)[O-])=C(C)N1` (centres undefined) yielded a melting point of 192 °C. With `N#Cc1ccc(C(=O)c2ccc(OC3OCC(O)C(O)C3O)cc2)cc1` (centres undefined), the melting point came to 189 °C. The value for `CCCCCCC(C)(C)c1ccc([C@@H]2CC(=O)C[C@H](C)C2)c(O)c1` (relative stereo) was 95 to 98 °C; that for `CNC(=O)NC(=O)C(CC1CCCC1O)c1ccc(Cl)c(Cl)c1` (centres undefined) was 62 to 64 °C; that for `Cc1nn(-c2ccccn2)c2nccc(O)c12` was 241 to 243 °C.

On to `COc1ccc(-c2sc3c(c2OC(C)=O)CCCC3)cc1`, for which the melting point was found to be 81 °C. As to `Cc1ccccc1OCc1ccccc1I`, the melting point fell in the range of 106 to 108 °C.

Consider `CC(C)C(=O)Nc1c(N)cc(Br)cc1OCc1ccccc1`, for which the melting point lay in the range of 214 to 215 °C. With `CCOC1CCC(=O)N1S(=O)(=O)c1ccccc1` (centres undefined) the figure was 112 to 113 °C; with `OCc1ccc2c(c1)ncn2-c1cccc(COCc2ccccn2)c1`, 101 to 103 °C; with `COc1ccccc1-n1c(-c2ccc(N(C)C)cc2)nnc1C(C)O` (centres undefined), 145 °C.

`N#CCCN1CC(=O)N(CCC#N)CC1=O` gave a melting point of 166 °C. The value for `CC(=O)COc1ccc2c(C)cc(=O)oc2c1` was 146 to 148 °C; that for `O=[N+]([O-])c1ccc2c(c1)OC(COc1nccnc1N1CCNCC1)CO2` (centres undefined) was 133 to 135 °C. The molecule `CCNC(=O)N1CCN(C2CCCc3ccc(OC)cc32)CC1` (centres undefined) gave a melting point of 141 to 143 °C.

As to `CCOC(=O)c1ccc(-c2ccc(-c3ccccc3OCOC)c(-c3ccc4c(c3)C(C)(C)CCC4(C)C)c2)cc1`, the melting point fell in the range of 132 to 135 °C. With `N=C(NS(=O)(=O)C=Cc1ccc([N+](=O)[O-])cc1)c1ccc([N+](=O)[O-])cc1` the figure was 173 to 177 °C. For the molecule `CC1(N2Cc3cc(CNC(=O)c4ccc(OC(F)(F)F)cc4)ccc3C2=O)CCC(=O)NC1=O` (centres undefined), the melting point was in the range of 224 to 226 °C. The value for `COC(=O)CCC#Cc1cc(Cl)ccc1NS(=O)(=O)c1ccc(C(F)(F)F)cc1` was 80 °C; that for `CSCCCCC(c1cc(F)ccc1F)S(=O)(=O)c1ccc(Cl)cc1` (centres undefined) was 103 to 106 °C; that for `CCNC(=O)Nc1nc2cc(-c3cccnc3)ccn2n1` was 230 to 233 °C.

`COC(=O)C=C(Nc1coc2ccc(Cl)cc2c1=O)C(=O)OC` had a melting point of 158 to 160 °C.

In turn, `C=CCOC(=O)C(C#N)=C(SC)SC` came in with a melting point of 36 to 37.5 °C. With `CC(=O)c1ccc(S(=O)(=O)Nc2cccnc2Nc2ccccc2)cc1` the figure was 171 to 173 °C; with `C=Cc1cc(CNC(=O)C(F)=Cc2ccc(C(C)(C)C)cc2)cc(F)c1NS(C)(=O)=O`, 165 to 167 °C; with `CC(CCc1c[nH]c2c(F)cc(F)cc12)N(CC1CC1)C1COc2c(F)ccc(C(N)=O)c2C1` (centres undefined), 175 to 180 °C. Consider `O=C(O)C(Cc1ccccc1)Oc1ccc(-c2ccc(-c3c(Cc4ccccc4)sc4ccccc34)cc2)cc1` (centres undefined), for which the melting point was 165 to 167 °C.

Turning to `c1cnc2c(c1)nnn2-c1ccncc1`, the melting point was 196 to 198 °C. The value for `CC(O)CNc1ccnc2cc(Cl)ccc12` (centres undefined) was 168 to 170 °C; that for `COC(=O)[C@H](c1ccccc1Cl)N1CCc2sc(OC(=O)c3ccccc3)cc2C1` was 84 to 86 °C; that for `COC(=O)N(C(=O)C(=O)c1cn(Cc2ccc(Cl)cc2)c2ccccc12)c1ccc2ncccc2c1` was 178 °C.

Regarding `Clc1ccc(NN=Cc2cccs2)cc1`, the melting point came out at 137 °C. The value for `CCC(CC)NC(=O)C[C@@H](C(=O)NC[C@@H](O)[C@H](Cc1ccccc1)NC(=O)[C@@H](NC(=O)c1ccc2ccccc2n1)[C@@H](C)O)C(C)(C)C` was 110 to 125 °C; that for `COc1cc([N+](=O)[O-])c2nccc(C)c2c1OCCCCCCCCCc1ccccc1` was 56 to 56.5 °C.
